{
  "source": "PubChem BioAssay AID1259407",
  "about": "(Chemical Carcinogenesis Research Information System (CCRIS), 2018)",
  "tested_on": "CCRIS mutagenicity, Ames/micronucleus/aberration tests",
  "assay": "CCRIS mutagenicity studies",
  "key": {"[1]": {"conditions": "Test System: AMES SALMONELLA TYPHIMURIUM, Strain/Indicator: TA100, Metabolic Activation: RAT, LIVER, S-9, AROCLOR 1254, Method: STANDARD PLATE"}, "[2]": {"conditions": "Test System: AMES SALMONELLA TYPHIMURIUM, Strain/Indicator: TA98, Metabolic Activation: NONE, Method: STANDARD PLATE"}, "[3]": {"conditions": "Test System: AMES SALMONELLA TYPHIMURIUM, Strain/Indicator: TA98, Metabolic Activation: RAT, LIVER, S-9, AROCLOR 1254, Method: STANDARD PLATE"}, "[4]": {"conditions": "Test System: AMES SALMONELLA TYPHIMURIUM, Strain/Indicator: TA100, Metabolic Activation: NONE, Method: STANDARD PLATE"}},
  "note": "The source made the active and inactive calls. How the calls were made is not given here.",
  "data": [
    {"smiles": "Cc1c2ccccc2cc2c1ccc1ccccc12", "values": [
      {"measurement": "mutagenic call", "setting": "Test System: AMES SALMONELLA TYPHIMURIUM, Strain/Indicator: TA98, Method: STANDARD PLATE", "result": "active; positive"},
      {"measurement": "mutagenic call", "setting": "Test System: AMES SALMONELLA TYPHIMURIUM, Strain/Indicator: TA100, Metabolic Activation: RAT, INTACT HEPATOCYTES, AROCLOR 1254, Method: PREINCUBATION", "result": "active; positive"},
      {"measurement": "mutagenic call", "setting": "[1]", "result": "active; positive"},
      {"measurement": "mutagenic call", "setting": "Test System: AMES SALMONELLA TYPHIMURIUM, Strain/Indicator: TA100, Metabolic Activation: RAT, LIVER, S-9, PHENOBARBITAL, Method: STANDARD PLATE", "result": "active; positive"},
      {"measurement": "mutagenic call", "setting": "Test System: AMES SALMONELLA TYPHIMURIUM, Strain/Indicator: TA100, Metabolic Activation: RAT, NADPH-FORTIFIED HOMOGENIZED HEPATOCYTES, AROCLOR 1254, Method: PREINCUBATION", "result": "active; positive"},
      {"measurement": "mutagenic call", "setting": "Test System: AMES SALMONELLA TYPHIMURIUM, Strain/Indicator: TA100, Metabolic Activation: RAT, SONICATED HEPATOCYTES, AROCLOR 1254, Method: PREINCUBATION", "result": "active; positive"},
      {"measurement": "mutagenic call", "setting": "Test System: AMES SALMONELLA TYPHIMURIUM, Strain/Indicator: TA100, Method: STANDARD PLATE", "result": "active; positive"},
      {"measurement": "mutagenic call", "setting": "Test System: CHINESE HAMSTER V-79, Strain/Indicator: V-79/8-AZAGUANINE, Metabolic Activation: CELL-MEDIATED, Method: STANDARD PLATE", "result": "active; positive"},
      {"measurement": "mutagenic call", "setting": "Test System: CHINESE HAMSTER V-79, Strain/Indicator: V-79/8-AZAGUANINE, Metabolic Activation: NONE, Method: STANDARD PLATE", "result": "active; positive"},
      {"measurement": "mutagenic call", "setting": "Test System: CHINESE HAMSTER V-79, Strain/Indicator: V-79/OUABAIN, Metabolic Activation: CELL-MEDIATED, Method: STANDARD PLATE", "result": "active; positive"}
    ]},
    {"smiles": "CC(C)NNC(=O)c1ccncc1", "values": [
      {"measurement": "mutagenic call", "setting": "[2]", "result": "inactive; negative"},
      {"measurement": "mutagenic call", "setting": "[3]", "result": "inactive; negative"},
      {"measurement": "mutagenic call", "setting": "[4]", "result": "inactive; negative"},
      {"measurement": "mutagenic call", "setting": "[1]", "result": "inactive; negative"},
      {"measurement": "mutagenic call", "setting": "Test System: AMES SALMONELLA TYPHIMURIUM, Strain/Indicator: TA1535, Metabolic Activation: NONE, Method: STANDARD PLATE", "result": "inactive; negative"},
      {"measurement": "mutagenic call", "setting": "Test System: AMES SALMONELLA TYPHIMURIUM, Strain/Indicator: TA1535, Metabolic Activation: RAT, LIVER, S-9, AROCLOR 1254, Method: STANDARD PLATE", "result": "inactive; negative"},
      {"measurement": "mutagenic call", "setting": "Test System: AMES SALMONELLA TYPHIMURIUM, Strain/Indicator: TA1537, Metabolic Activation: NONE, Method: STANDARD PLATE", "result": "inactive; negative"},
      {"measurement": "mutagenic call", "setting": "Test System: AMES SALMONELLA TYPHIMURIUM, Strain/Indicator: TA1537, Metabolic Activation: RAT, LIVER, S-9, AROCLOR 1254, Method: STANDARD PLATE", "result": "inactive; negative"}
    ]},
    {"smiles": "O=C(OCCBr)C(=O)OCCBr", "values": [
      {"measurement": "mutagenic call", "setting": "[4]", "result": "active; positive"},
      {"measurement": "mutagenic call", "setting": "[1]", "result": "active; positive"}
    ]},
    {"smiles": "COc1c(Cl)ccc(Cl)c1C(=O)O", "values": [
      {"measurement": "mutagenic call", "setting": "Test System: AMES SALMONELLA TYPHIMURIUM, Strain/Indicator: TA97, Metabolic Activation: NONE, Method: STANDARD PLATE", "result": "inactive; negative"},
      {"measurement": "mutagenic call", "setting": "Test System: AMES SALMONELLA TYPHIMURIUM, Strain/Indicator: TA97, Metabolic Activation: RAT, LIVER, S-9, AROCLOR 1254, Method: STANDARD PLATE", "result": "inactive; negative"},
      {"measurement": "mutagenic call", "setting": "[2]", "result": "inactive; negative"},
      {"measurement": "mutagenic call", "setting": "[3]", "result": "inactive; negative"},
      {"measurement": "mutagenic call", "setting": "[4]", "result": "inactive; negative"},
      {"measurement": "mutagenic call", "setting": "[1]", "result": "inactive; negative"},
      {"measurement": "mutagenic call", "setting": "Test System: AMES SALMONELLA TYPHIMURIUM, Strain/Indicator: TA102, Metabolic Activation: NONE, Method: STANDARD PLATE", "result": "inactive; negative"},
      {"measurement": "mutagenic call", "setting": "Test System: AMES SALMONELLA TYPHIMURIUM, Strain/Indicator: TA102, Metabolic Activation: RAT, LIVER, S-9, AROCLOR 1254, Method: STANDARD PLATE", "result": "inactive; negative"},
      {"measurement": "mutagenic call", "setting": "Test System: UDS HUMAN LYMPHOCYTES, Strain/Indicator: THY INCORP (NON-S-PHASE), Metabolic Activation: NONE, Method: LIQUID SCINTILLATION COUNTING", "result": "inactive; negative"},
      {"measurement": "mutagenic call", "setting": "Test System: UDS HUMAN LYMPHOCYTES, Strain/Indicator: THY INCORP (NON-S-PHASE), Metabolic Activation: RAT, LIVER, S-9, Method: LIQUID SCINTILLATION COUNTING", "result": "active; positive"}
    ]},
    {"smiles": "CCCOC(=O)NO", "values": [
      {"measurement": "mutagenic call", "setting": "Test System: E. COLI, Strain/Indicator: WP2 UVRA, Metabolic Activation: NONE, Method: FLUCTUATION TEST", "result": "active; positive"}
    ]}
  ]
}
